# Source: the RepoRT retention time repository (doi:10.1016/j.foodchem.2018.11.056)
# Experiment: RP, Thermo Scientific Hypersil GOLD aQ, 100 × 2.1 mm, 1.9 µm, 30 °C, 0.3 mL/min, estimated dead time 0.73 min; A: water + 0.1% formic acid; B: methanol + 0.1% formic acid + 4 mM ammonium formate; gradient (min/%B) 0/0 1/0 8/100 10/100
# Conditions: stereoisomer not certain
row,SMILES,LC retention time
1,CC(C)C1(NC(=O)C2CC3c4cccc5[nH]cc(c45)CC3N(C)C2)OC2(O)C3CCCN3C(=O)C(Cc3ccccc3)N2C1=O (stereo not given),6.46 min
2,CC(C)C1(NC(=O)C2C=C3c4cccc5[nH]cc(c45)CC3N(C)C2)OC2(O)C3CCCN3C(=O)C(Cc3ccccc3)N2C1=O (stereo not given),6.55 min
3,CC(=O)OCC12CC(OC(=O)CC(C)C)C(C)=CC1OC1C(O)C(O)C2(C)C12CO2 (stereo not given),6.52 min
4,O=c1cc(CO)occ1O,2.6 min
5,CCCCC(C)C(OC(=O)CC(CC(=O)O)C(=O)O)C(CC(C)CC(O)CCCCC(O)CC(O)C(C)N)OC(=O)CC(CC(=O)O)C(=O)O (stereo not given),6.81 min
6,COc1cc2c(c3oc(=O)c4c(c13)CCC4=O)C1C=COC1O2 (stereo not given),6.26 min
7,CC1CCCC(=O)CCCCCc2cc(O)cc(O)c2C(=O)O1 (stereo not given),7.1 min
8,Cc1cc(O)cc2oc(=O)c3c(O)cc(O)cc3c12,6.89 min
9,CC1Cc2ccc(C(=O)NC(Cc3ccccc3)C(=O)O)c(O)c2C(=O)O1 (stereo not given),6.78 min
10,CC1CCCC(=O)CCCC=Cc2cc(O)cc(O)c2C(=O)O1 (stereo not given),7.16 min
11,CCCCC(C)C(OC(=O)CC(CC(=O)O)C(=O)O)C(CC(C)CCCCCCC(O)CC(O)C(C)N)OC(=O)CC(CC(=O)O)C(=O)O (stereo not given),7.19 min
12,COc1ccc2c3c4n(c2c1)C(C=C(C)C)OOC(C)(C)CC4N1C(=O)C2CCCN2C(=O)C1(O)C3O (stereo not given),7.33 min
13,COc1cc2c(c3oc(=O)c4c(c13)CCC4=O)C1(O)C=COC1O2 (stereo not given),5.77 min
14,COCC1OC(=O)c2coc3c2C1(C)C1=C(C3=O)C2CCC(=O)C2(C)CC1OC(C)=O (stereo not given),6.14 min
15,COc1cc2c(c3oc(=O)c4c(c13)CCOC4=O)C1CCOC1O2 (stereo not given),5.8 min
16,CC(C)CC1C(=O)N2CCCC2C2(O)OC(NC(=O)C3C=C4c5cccc6[nH]cc(c56)CC4N(C)C3)(C(C)C)C(=O)N12 (stereo not given),6.5 min
17,CC1=CC2c3cccc4[nH]cc(c34)CC2N(C)C1 (stereo not given),5.35 min
18,O=C1C=C2C(=CCOC2O)O1 (stereo not given),2.12 min
19,COc1cc2c(c3oc4cccc(O)c4c(=O)c13)C1C=COC1O2 (stereo not given),7.49 min
20,CC1CCC2C(C)(C)C(O)CCC2(C)C12Cc1c(O)cc3c(c1O2)CNC3=O (stereo not given),7.51 min
21,CC(=O)OCC12C(C=C(C)C(=O)C1O)OC1C(O)CC2(C)C12CO2 (stereo not given),5.25 min
22,COc1c(C)c2c(c(O)c1CC=C(C)CCC(=O)O)C(=O)OC2,6.77 min
23,CC1=CC2OC3C(O)CC(C)(C34CO4)C2(CO)C(O)C1=O (stereo not given),4.26 min

row,SMILES,LC retention time
1,CC(C)(O)C1OC2CCC3(C)C(O)(CCC4Cc5c([nH]c6ccccc56)C43C)C2=CC1=O (stereo not given),7.81 min
2,CN1C(=O)C23CC4=CC=CC(O)C4N2C(=O)C1(CO)SS3 (stereo not given),5.48 min
3,COc1cc(=O)oc(C=CC=CC=CC(C)=CC2(C)OC(C)C(C)(O)C2O)c1C (stereo not given),7.23 min
4,CC1=CC2OC3C(OC4OC(CO)C(O)C(O)C4O)CC(C)(C34CO4)C2(CO)C(O)C1=O (stereo not given),4.29 min
5,CC(=O)OCC12CC(O)C(C)=CC1OC1C(O)C(OC(C)=O)C2(C)C12CO2 (stereo not given),4.9 min
6,CCCCC(C)C(OC(=O)CC(CC(=O)O)C(=O)O)C(CC(C)CC(O)CCCCCCC(O)C(C)N)OC(=O)CC(CC(=O)O)C(=O)O (stereo not given),6.99 min
7,CC1=CC2OC3C(O)C(O)C(C)(C2(CO)CC1OC(=O)CC(C)C)C31CO1 (stereo not given),6.17 min
8,C=CC(C)(C)C12CC3C(=O)NC(=Cc4cnc[nH]4)C(=O)N3C1Nc1ccccc12 (stereo not given),6.61 min
9,CC1=CC2OC3C(O)C(O)C(C)(C34CO4)C2(CO)C(O)C1=O (stereo not given),3.7 min
10,CC1CCCC(O)CCCCCc2cc(O)cc(O)c2C(=O)O1 (stereo not given),6.88 min
11,COc1cc2c(c3oc(=O)c4c(c13)CCOC4=O)C1C=COC1O2 (stereo not given),5.89 min
12,CC(C)CC1C(=O)N2CCCC2C2(O)OC(C)(NC(=O)C3C=C4c5cccc6[nH]cc(c56)CC4N(C)C3)C(=O)N12 (stereo not given),6.11 min
13,CC1=C2C(=COC(C)C2C)C(=O)C(C(=O)O)=C1O (stereo not given),6.53 min
14,CC(=O)OC1CC2(C)C3(CO3)C1OC1C=C(C)C(=O)C(O)C12CO (stereo not given),5.49 min
15,COC1C(OC(=O)C=CC=CC=CC=CC(=O)O)CCC2(CO2)C1C1(C)OC1CC=C(C)C (stereo not given),7.52 min
16,CC(=O)OCC12CC(OC(=O)CC(C)C)C(C)=CC1OC1C(O)C(OC(C)=O)C2(C)C12CO2 (stereo not given),6.78 min
17,CC1=CC2OC3C(O)C(O)C(C)(C2(CO)CC1O)C31CO1 (stereo not given),3.76 min
18,C=C1C2OC3C=C(C)C(=O)C(O)C3(CO)C1(C)CC2O (stereo not given),4.77 min
19,COc1cc2c(c3oc(=O)c4c(c13)CCC4=O)C1CCOC1O2 (stereo not given),6.11 min
20,C=CC(C)(C)C12C=C(O)C(=O)N3C(=Cc4cnc[nH]4)C(=O)NC31N(OC)c1ccccc12 (stereo not given),6.11 min
21,CC(=O)OC1C(O)C2OC3C=C(C)C(=O)C(O)C3(CO)C1(C)C21CO1 (stereo not given),4.69 min
22,CC(C)CC1NC(=O)C(C)N(C)C(=O)CNC(=O)C(=Cc2ccccc2)N(C)C1=O (stereo not given),6.66 min
